Laboratory results from patent US20080021056A1, “Fused, Tricyclic Sulfonamide Inhibitors of Gamma Secretase” (priority 2006, published 2008).
Where “and” joins values, the source holds several entries; their conditions need not be identical. Identical values can stand only once.

biological target: T1, gamma-secretase (Homo sapiens, UniProt P49768); test: Gamma-secretase APP enzyme assay; format: biochemical; conditions: cleavage of MBP-C125 Swe substrate at the Aβ40 site; partially purified extract of IMR-32 cell membranes; ELISA
T1 construct: partially purified extract of IMR-32 cell membranes as the gamma-secretase enzyme preparation; endogenous in cells; host or cells: IMR-32 cell membranes (partially purified extract)
Excerpt: The gamma-secretase APP enzyme assay was designed to measure the specific proteolytic cleavage of an APP substrate (MBP-C125 Swe fusion protein) at the Aβ40 site. The assay used a partially purified extract of IMR-32 cell membranes as the gamma-secretase enzyme preparation and a recombinant fusion protein containing the C-terminal 125 amino acids of the Swedish variant of the APP (MBP-C125swe) as the substrate. This assay involved two steps beginning with the enzymatic reaction generating a cleavage product that was captured with an immobilized antibody specific for the neo-epitope Aβ40 site. The captured cleavage product was then detected in a sandwich ELISA assay with a biotinylated reporter antibody that is specific to Aβ (17-28). Streptavidin-linked alkaline phosphatase was then added that would generate a fluorescent signal proportional to the amount of cleavage product. This assay was used to discover small molecule inhibitors of gamma-secretase.
Briefly, a 149 mg/ml solution of BIGCHAP detergent was made with water at 42° C. and then rotated for 30 minutes at the same temperatures This warmed solution of BigCHAPS (N,N-Bis(3-D-gluconamidopropyl)cholamide) detergent was used to dissolve Brain Extract Type-V (lipid containing a minimum of 40% phosphatidylethanolamine) from Signa (St. Louis, Mo.) to a concentration of 8 mg/ml. This solution containing BigCHAPS and lipid at 8 mg/ml is then diluted to 0.53 mg/ml lipid with a pre-warmed solution of Hepes and sodium chloride. This final solution containing Hepes buffer, sodium chloride, BigCHAPS detergent and lipid is used to create working solutions of both gamma-secretase (25 Units) and the MBP-C125 substrate (0.05 mg/ml).
Gamma-secretase was then added to a 96-well micro-titre plate and then incubated with various concentrations of inhibitor for 30 minutes at 37° C. MBPC125 substrate was then added to initiate the reaction that would run for two hours at 37° C. The reaction was quenched with the addition of SDS to a final concentration of 0.1% and then 100 μl of the reaction mixture was transferred to a capture ELISA plate and incubated overnight at 4° C. Detection of the cleavage product was performed using a standard sandwich ELISA assay and quantified using a six point standard curve.

Which IC50 does the source give for `O=c1c2cn[nH]c2c2ccccc2n1S(=O)(=O)c1ccc(Cl)cc1` [5-[(4-chlorophenyl)sulfonyl]-1,5-dihydro-4H-pyrazolo[4,3-c]quinolin-4-one] here?
The IC50 was 101 to 500 nM.

For `O=S(=O)(c1ccc(Cl)cc1)N1Cc2c[nH]nc2-c2ccccc21` [5-[(4-chlorophenyl)sulfonyl]-4,5-dihydro-1H-pyrazolo[4,3-c]quinoline], which IC50 is on record?
Its IC50 is 0.1 to 100 nM.

For `CC1c2c[nH]nc2-c2ccc(F)cc2N1S(=O)(=O)c1ccc(Cl)cc1` (stereo not drawn) [5-(4-chlorophenylsulfonyl)-7-fluoro-4-methyl-4,5-dihydro-2H-pyrazolo[4,3-c]quinoline], which IC50 is on record?
The IC50 was 0.1 to 100 nM.

With `CC1c2c[nH]nc2-c2cc(F)ccc2N1S(=O)(=O)c1ccc(Cl)cc1` (racemic) [5-[(4-chlorophenyl)sulfonyl]-8-fluoro-4-methyl-4,5-dihydro-2H-pyrazolo[4,3-c]quinoline] as the molecule, how does the IC50 read?
The IC50 was 0.1 to 100 nM.

`CC1c2cn[nH]c2-c2cc(F)ccc2N1S(=O)(=O)c1ccccn1` (stereo not drawn) [8-fluoro-4-methyl-5-(pyridin-2-ylsulfonyl)-4,5-dihydro-1H-pyrazolo[4,3-c]quinoline] was tested. Which IC50 did it give?
Its IC50 is 101 to 500 nM and 0.1 to 100 nM.

How did the IC50 turn out when `CC1c2cn[nH]c2-c2cc(F)ccc2N1S(=O)(=O)c1cccnc1` (racemic) [8-fluoro-4-methyl-5-(pyridin-3-ylsulfonyl)-4,5-dihydro-1H-pyrazolo[4,3-c]quinoline] was run?
Its IC50 is 101 to 500 nM.

`CCC1c2cn[nH]c2-c2ccccc2N1S(=O)(=O)c1ccc(Cl)cc1` (stereo not drawn) [5-(4-chlorophenylsulfonyl)-4-ethyl-4,5-dihydro-1H-pyrazolo[4,3-c]quinoline] was tested. Which IC50 did it give?
Its IC50 is 0.1 to 100 nM.

For `O=S(=O)(c1ccc(C(F)(F)F)nc1)N1c2cc(OC(F)(F)F)ccc2-c2n[nH]cc2[C@H]1C1CC1` [(R)-4-cyclopropyl-7-(trifluoromethoxy)-5-(6-(trifluoromethyl)pyridin-3-ylsulfonyl)-4,5-dihydro-2H-pyrazolo[4,3-c]quinoline], which IC50 is on record?
Its IC50 is 0.1 to 100 nM.

`CC1c2c[nH]nc2-c2cc(F)ccc2N1S(=O)(=O)c1cn(C)cn1` (stereo not drawn) [8-fluoro-4-methyl-5-(1-methyl-1H-imidazol-4-ylsulfonyl)-4,5-dihydro-1H-pyrazolo[4,3-c]quinoline] was tested. Which IC50 did it give?
Its IC50 is 1000 to 10000 nM.

With `O=S(=O)(c1ccc(F)cc1)N1c2ccccc2-c2n[nH]cc2C1C1CC1` (stereo not drawn) [4-cyclopropyl-5-(4-fluorophenylsulfonyl)-4,5-dihydro-2H-pyrazolo[4,3-c]quinoline] as the molecule, how does the IC50 read?
Its IC50 is 0.1 to 100 nM.

With `O=S(=O)(c1ccc(OC(F)(F)F)cc1)N1c2cc(OC(F)(F)F)ccc2-c2n[nH]cc2[C@H]1C1CC1` [(R)-4-cyclopropyl-7-(trifluoromethoxy)-5-(4-(trifluoromethoxy)phenylsulfonyl)-4,5-dihydro-2H-pyrazolo[4,3-c]quinoline] as the molecule, how does the IC50 read?
Its IC50 is 0.1 to 100 nM.

For `CC1c2c[nH]nc2-c2c(F)cccc2N1S(=O)(=O)c1ccc(Cl)cc1` (stereo not drawn) [5-(4-chlorophenylsulfonyl)-9-fluoro-4-methyl-4,5-dihydro-2H-pyrazolo[4,3-c]quinoline], which IC50 is on record?
The IC50 was 0.1 to 100 nM.

For `CC1c2c[nH]nc2-c2ccncc2N1S(=O)(=O)c1ccc(Cl)cc1` (stereo not drawn) [5-(4-chlorophenylsulfonyl)-4-methyl-4,5-dihydro-2H-pyrazolo[4,3-c][1,7]naphthyridine], which IC50 is on record?
Its IC50 is 0.1 to 100 nM.

Which IC50 does the source give for `O=S(=O)(c1ccc(Cl)cc1)N1c2nccn2-c2[nH]ncc2C1C1CC1` (stereo not drawn) [5-(4-chlorophenylsulfonyl)-4-cyclopropyl-4,5-dihydro-1H-imidazo[1,2-a]pyrazolo[4,3-e]pyrimidine] here?
Its IC50 is 101 to 500 nM.

Which IC50 does the source give for `O=[N+]([O-])c1ccc(S(=O)(=O)N2c3cc(F)c(F)cc3-c3[nH]ncc3[C@H]2C2CC2)cc1` [(R)-4-cyclopropyl-7,8-difluoro-5-(4-nitrophenylsulfonyl)-4,5-dihydro-1H-pyrazolo[4,3-c]quinoline] here?
The IC50 was 0.1 to 100 nM.

`O=S(=O)(c1ccc(Cl)cc1)N1Cc2c[nH]nc2-c2ccc(F)cc21` [5-[(4-chlorophenyl)sulfonyl]-7-fluoro-4,5-dihydro-2H-pyrazolo[4,3-c]quinoline] was tested. Which IC50 did it give?
The IC50 was 0.1 to 100 nM.

Which IC50 does the source give for `Nc1ccc(S(=O)(=O)N2c3cc(F)c(F)cc3-c3[nH]ncc3[C@H]2C2CC2)cc1` [(R)-4-(4-cyclopropyl-7,8-difluoro-1H-pyrazolo[4,3-c]quinolin-5(4H)-ylsulfonyl)aniline] here?
The IC50 was 0.1 to 100 nM.

For `O=c1c2cn[nH]c2c2cc(F)ccc2n1S(=O)(=O)c1ccc(Cl)cc1` [5-(4-chlorophenylsulfonyl)-8-fluoro-1H-pyrazolo[4,3-c]quinolin-4(5H)-one], which IC50 is on record?
Its IC50 is 1000 to 10000 nM.

For `CC1c2cn[nH]c2-c2cc(F)ccc2N1S(=O)(=O)c1ccc(-c2ccccn2)s1` (stereo not drawn) [8-fluoro-4-methyl-5-(5-(pyridin-2-yl)thiophen-2-ylsulfonyl)-4,5-dihydro-1H-pyrazolo[4,3-c]quinoline], which IC50 is on record?
The IC50 was 1000 to 10000 nM.

With `O=S(=O)(c1ccc(F)cc1)N1c2cc(F)c(F)cc2-c2n[nH]cc2C1C1CC1` (stereo not drawn) [4-cyclopropyl-7,8-difluoro-5-(4-fluorophenylsulfonyl)-4,5-dihydro-2H-pyrazolo[4,3-c]quinoline] as the molecule, how does the IC50 read?
Its IC50 is 0.1 to 100 nM.

For `O=S(=O)(c1ccc(F)cc1)N1c2ncccc2-c2n[nH]cc2C1C1CC1` (stereo not drawn) [4-cyclopropyl-5-(4-fluorophenylsulfonyl)-4,5-dihydro-2H-pyrazolo[4,3-c][1,8]naphthyridine], which IC50 is on record?
Its IC50 is 0.1 to 100 nM.

For `CC1c2c[nH]nc2-c2cc(F)ccc2N1S(=O)(=O)c1cnn(C)c1` (stereo not drawn) [8-fluoro-4-methyl-5-(1-methyl-1H-pyrazol-4-ylsulfonyl)-4,5-dihydro-1H-pyrazolo[4,3-c]quinoline], which IC50 is on record?
Its IC50 is 101 to 500 nM.

How did the IC50 turn out when `O=S(=O)(c1ccc(Cl)cc1)N1Cc2c[nH]nc2-c2cc(Cl)ccc21` [8-chloro-5-[(4-chlorophenyl)sulfonyl]-4,5-dihydro-2H-pyrazolo[4,3-c]quinoline] was run?
The IC50 was 501 to 1000 nM.

For `O=c1c2cnn(S(=O)(=O)c3ccc(Cl)cc3)c2c2ccccc2n1S(=O)(=O)c1ccc(Cl)cc1` [1,5-bis(4-chlorophenylsulfonyl)-1H-pyrazolo[4,3-c]quinolin-4(5H)-one], which IC50 is on record?
Its IC50 is 1000 to 10000 nM.

Which IC50 does the source give for `O=S(=O)(c1ccc(OC(F)F)cc1)N1c2ccc(F)cc2-c2n[nH]cc2C1C1CC1` (stereo not drawn) [4-cyclopropyl-5-(4-(difluoromethoxy)phenylsulfonyl)-8-fluoro-4,5-dihydro-1H-pyrazolo[4,3-c]quinoline] here?
Its IC50 is 0.1 to 100 nM.

With `COc1ccc2c(c1)N(S(=O)(=O)c1ccc(Cl)cc1)C(C)c1c[nH]nc1-2` (stereo not drawn) [5-[(4-chlorophenyl)sulfonyl]-7-methoxy-4-methyl-4,5-dihydro-1H-pyrazolo[4,3-c]quinoline] as the molecule, how does the IC50 read?
Its IC50 is 0.1 to 100 nM.

How did the IC50 turn out when `O=S(=O)(c1ccc(C(F)(F)F)cc1)N1c2cc(F)c(F)cc2-c2[nH]ncc2C1C1CC1` (single isomer, unassigned) [4-cyclopropyl-7,8-difluoro-5-(4-(trifluoromethyl)phenylsulfonyl)-4,5-dihydro-1H-pyrazolo[4,3-c]quinoline] was run?
Its IC50 is 0.1 to 100 nM.

With `CC1c2cn[nH]c2-c2ncccc2N1S(=O)(=O)c1ccc(Cl)cc1` (stereo not drawn) [5-[(4-chlorophenyl)sulfonyl]-4-methyl-4,5-dihydro-1H-pyrazolo[4,3-c]-1,5-naphthyridine] as the molecule, how does the IC50 read?
The IC50 was 0.1 to 100 nM.

`O=S(=O)(c1ccc(C(F)(F)F)nc1)N1c2cc(C(F)(F)F)ccc2-c2[nH]ncc2[C@H]1C1CC1` [(R)-4-cyclopropyl-7-(trifluoromethyl)-5-(6-(trifluoromethyl)pyridin-3-ylsulfonyl-4,5-dihydro-1H-pyrazolo[4,3-c]quinoline] was tested. Which IC50 did it give?
The IC50 was 0.1 to 100 nM.

Which IC50 does the source give for `O=S(=O)(c1ccc(Cl)cn1)N1c2cc(F)c(F)cc2-c2[nH]ncc2C1C1CC1` (stereo not drawn) [5-(5-chloropyridin-2-ylsulfonyl)-4-cyclopropyl-7,8-difluoro-4,5-dihydro-1H-pyrazolo[4,3-c]quinoline] here?
The IC50 was 0.1 to 100 nM.

same assay, conditions: cleavage of MBP-C125 Swe substrate at the Aβ40 site; partially purified extract of IMR-32 cell membranes; ELISA; enantiomer A

For `O=S(=O)(c1ccc(C(F)(F)F)cc1)N1c2ccc(F)cc2-c2[nH]ncc2C1C1CC1` (single isomer, unassigned) [4-cyclopropyl-8-fluoro-5-(4-(trifluoromethyl)phenylsulfonyl)-4,5-dihydro-1H-pyrazolo[4,3-c]quinoline], which IC50 is on record?
The IC50 was 0.1 to 100 nM.

`CC1c2cn[nH]c2-c2cc(F)c(F)cc2N1S(=O)(=O)c1ccc(C(F)(F)F)cc1` (single isomer, unassigned) [7,8-difluoro-4-methyl-5-(4-(trifluoromethyl)phenylsulfonyl)-4,5-dihydro-1H-pyrazolo[4,3-c]quinoline] was tested. Which IC50 did it give?
The IC50 was 0.1 to 100 nM.

Which IC50 does the source give for `CC1c2cn[nH]c2-c2cc(O)c(O)cc2N1S(=O)(=O)c1ccc(Cl)cc1` (single isomer, unassigned) [5-(4-chlorophenylsulfonyl)-4-methyl-4,5-dihydro-1H-pyrazolo[4,3-c]quinoline-7,8-diol] here?
Its IC50 is 0.1 to 100 nM.

same assay, conditions: cleavage of MBP-C125 Swe substrate at the Aβ40 site; partially purified extract of IMR-32 cell membranes; ELISA; enantiomer B

With `O=S(=O)(c1ccc(C(F)(F)F)cc1)N1c2ccc(F)cc2-c2[nH]ncc2C1C1CC1` (single isomer, unassigned) [4-cyclopropyl-8-fluoro-5-(4-(trifluoromethyl)phenylsulfonyl)-4,5-dihydro-1H-pyrazolo[4,3-c]quinoline] as the molecule, how does the IC50 read?
The IC50 was 101 to 500 nM.

Which IC50 does the source give for `CC1c2cn[nH]c2-c2cc(F)c(F)cc2N1S(=O)(=O)c1ccc(C(F)(F)F)cc1` (single isomer, unassigned) [7,8-difluoro-4-methyl-5-(4-(trifluoromethyl)phenylsulfonyl)-4,5-dihydro-1H-pyrazolo[4,3-c]quinoline] here?
Its IC50 is 101 to 500 nM.

Which IC50 does the source give for `CC1c2cn[nH]c2-c2cc(O)c(O)cc2N1S(=O)(=O)c1ccc(Cl)cc1` (single isomer, unassigned) [5-(4-chlorophenylsulfonyl)-4-methyl-4,5-dihydro-1H-pyrazolo[4,3-c]quinoline-7,8-diol] here?
The IC50 was 101 to 500 nM.
